According to patent publication US20090246276A1, “Pharmaceutical Compositions” (priority 2008, published 2009):
Structures can show the parent of a compound that is named as a salt.

Key:
[1] = Solubility (37° C.) in 0.1N HCl, pH 4.5, pH 6.8; type: physicochemical; design: Solubility (37° C.): unit not given here; conditions: for Solubility (37° C.): hydrochloride; for solubility: 37 °C
[2] = In-vitro dissolution, 900 ml medium (0.1N HCl, pH 4.5 acetate buffer, pH 6.8 or pH 7.5 phosphate buffer), USP Apparatus 1, 75 rpm, 37° C.; type: physicochemical; conditions: for % Released (Bi-layer Tablets): Example 16 coated bi-layer tablet; for % Released (Homogenous Tablets): Example 19 tablet; for % Release: 900 ml Phosphate Buffer, pH 7.5, Apparatus 1, 75 rpm, 37 C.
Method: The dissolution profile of the above pharmaceutical composition was determined under the dissolution conditions described below in Tables 1A, 1B, and 1C.

[3] = Example 22: effect of bupropion (Wellbutrin XL 300 mg) on steady-state pharmacokinetics of citalopram (Celexa 20 mg)
[4] = steady-state dosing of Celexa 20 mg alone
[5] = steady-state dosing of Celexa 20 mg plus Wellbutrin XL 300 mg

CC(NC(C)(C)C)C(=O)c1cccc(Cl)c1 (stereo not drawn) [Bupropion HCl, bupropion hydrochloride]
Solubility (37° C.) ([1]; 0.1N HCl): 416
Solubility (37° C.) ([1]; pH 4.5): 437
Solubility (37° C.) ([1]; pH 6.8): 437
% Released (Bi-layer Tablets) ([2]; 0.1N HCl, 1 hr): 16.36%
% Released (Bi-layer Tablets) ([2]; 0.1N HCl, 2 hr): 33.56%
% Released (Bi-layer Tablets) ([2]; 0.1N HCl, 3 hr): 49.54%
% Released (Bi-layer Tablets) ([2]; 0.1N HCl, 4 hr): 65.00%
% Released (Bi-layer Tablets) ([2]; 0.1N HCl, 5 hr): 79.63%
% Released (Bi-layer Tablets) ([2]; 0.1N HCl, 6 hr): 88.97%
% Released (Bi-layer Tablets) ([2]; 0.1N HCl, 7 hr): 94.82%
% Released (Bi-layer Tablets) ([2]; 0.1N HCl, 8 hr): 97.06%
% Released (Homogenous Tablets) ([2]; 0.1N HCl, 1 hr): 16.63%
% Released (Homogenous Tablets) ([2]; 0.1N HCl, 2 hr): 39.40%
% Released (Homogenous Tablets) ([2]; 0.1N HCl, 3 hr): 60.60%
% Released (Homogenous Tablets) ([2]; 0.1N HCl, 4 hr): 78.36%
% Released (Homogenous Tablets) ([2]; 0.1N HCl, 5 hr): 90.30%
% Released (Homogenous Tablets) ([2]; 0.1N HCl, 6 hr): 96.38%
% Released (Homogenous Tablets) ([2]; 0.1N HCl, 7 hr): 99.14%
% Released (Homogenous Tablets) ([2]; 0.1N HCl, 8 hr): 100.26%

CN(C)CCCC1(c2ccc(F)cc2)OCc2cc(C#N)ccc21 (stereo not drawn) [Citalopram, citalopram]
AUC ([3]; both, human, in vivo, 20 mg): 1220 ng·h/mL
Cmax ([3]; both, human, in vivo, 20 mg): 67.9 ng/mL
MRT ([3]; both, human, in vivo, 20 mg): 48.6 h
Tmax ([3]; both, human, in vivo, 20 mg): 3.96 h
Vd/F ([3]; both, human, in vivo, 20 mg): 750 L
CL/F, Mean [3, 4]: 17.66 L/h
Cavg, Mean [3, 4]: 50.8 ng/mL
Cmin, Mean [3, 4]: 39.5 ng/mL
Fluctuation, Mean [3, 4]: 57.22%
Swing, Mean [3, 4]: 75.55%
CL/F, Mean [3, 5]: 11.04 L/h
Cavg, Mean [3, 5]: 78.2 ng/mL
Cmin, Mean [3, 5]: 61.6 ng/mL
Fluctuation, Mean [3, 5]: 48.46%
Swing, Mean [3, 5]: 62.15%

CNCCC[C@]1(c2ccc(F)cc2)OCc2cc(C#N)ccc21 [Desmethylcitalopram, desmethylcitalopram]
AUC0-τ, Mean [3, 4]: 445.9 ng·h/mL
Cavg, Mean [3, 4]: 18.6 ng/mL
Cmax, Mean [3, 4]: 21.7 ng/mL
Cmin, Mean [3, 4]: 16.3 ng/mL
Fluctuation, Mean [3, 4]: 28.93%
M/P Ratio, Mean [3, 4]: 0.4062
MRT, Mean [3, 4]: 98.54 h
Swing, Mean [3, 4]: 33.09%
Tmax, Mean [3, 4]: 5.46 h
AUC0-τ, Mean [3, 5]: 485.2 ng·h/mL
Cavg, Mean [3, 5]: 20.2 ng/mL
Cmax, Mean [3, 5]: 23.6 ng/mL
Cmin, Mean [3, 5]: 17.3 ng/mL
Fluctuation, Mean [3, 5]: 30.39%
M/P Ratio, Mean [3, 5]: 0.2814
MRT, Mean [3, 5]: 85.78 h
Swing, Mean [3, 5]: 35.98%
Tmax, Mean [3, 5]: 7.12 h

N#Cc1ccc2c(c1)COC2(CCCN)c1ccc(F)cc1 (stereo not drawn) [Didesmethylcitalopram, didesmethylcitalopram]
AUC0-τ, Mean [3, 4]: 92.04 ng·h/mL
Cavg, Mean [3, 4]: 3.84 ng/mL
Cmax, Mean [3, 4]: 4.40 ng/mL
Cmin, Mean [3, 4]: 3.42 ng/mL
Fluctuation, Mean [3, 4]: 26.43%
M/P Ratio, Mean [3, 4]: 0.09587
MRT, Mean [3, 4]: 258.96 h
Swing, Mean [3, 4]: 29.97%
Tmax, Mean [3, 4]: 6.41 h

OCCOCCN1CCN(C2=Nc3ccccc3Sc3ccccc32)CC1 [Quetiapine Fumarate, quetiapine fumarate]
solubility ([1]; 0.1N HCl, simulated gastric fluid): 41000 µg/mL
solubility ([1]; pH 4.5, aqueous buffer, pH 4.5): 3000 µg/mL
solubility ([1]; pH 6.8, aqueous buffer, pH 6.8): 300 µg/mL
% Released ([2]; Example 17 tablet, 0.1N HCl, 1 hr): 18%
% Released ([2]; Example 17 tablet, 0.1N HCl, 2 hr): 39%
% Released ([2]; Example 17 tablet, 0.1N HCl, 4 hr): 69%
% Released ([2]; Example 17 tablet, 0.1N HCl, 8 hr): 98%
% Released ([2]; Example 17 tablet, 0.1N HCl, 12 hr): 97%
% Released ([2]; Example 17 tablet, 0.1N HCl, 16 hr): 96%
% Released ([2]; Example 17 tablet, pH 6.8 phosphate buffer, 1 hr): 2%
% Released ([2]; Example 17 tablet, pH 6.8 phosphate buffer, 2 hr): 10%
% Released ([2]; Example 17 tablet, pH 6.8 phosphate buffer, 4 hr): 41%
% Released ([2]; Example 17 tablet, pH 6.8 phosphate buffer, 8 hr): 76%
% Released ([2]; Example 17 tablet, pH 6.8 phosphate buffer, 12 hr): 93%
% Released ([2]; Example 17 tablet, pH 6.8 phosphate buffer, 16 hr): 95%

COc1cccc(C2(O)CCCCC2CN(C)C)c1 (stereo not drawn) [Tramadol HCl, tramadol HCl]
% Released ([2]; Example 20 tablet, 0.1N HCl, 0.5 hr): 10%
% Released ([2]; Example 20 tablet, 0.1N HCl, 1 hr): 33%
% Released ([2]; Example 20 tablet, 0.1N HCl, 2 hr): 73%
% Released ([2]; Example 20 tablet, 0.1N HCl, 3 hr): 96%
% Released ([2]; Example 20 tablet, 0.1N HCl, 4 hr): 104%
% Released ([2]; Example 20 tablet, 0.1N HCl, 5 hr): 106%
% Released ([2]; Example 20 tablet, 0.1N HCl, 6 hr): 106%
% Released ([2]; Example 20 tablet, 0.1N HCl, 8 hr): 106%
% Released ([2]; Example 20 tablet, 0.1N HCl, 10 hr): 105%
% Released ([2]; Example 20 tablet, 0.1N HCl, 12 hr): 105%
% Released ([2]; Example 20 tablet, pH 6.8 phosphate buffer, 0.5 hr): 9%
% Released ([2]; Example 20 tablet, pH 6.8 phosphate buffer, 1 hr): 32%
% Released ([2]; Example 20 tablet, pH 6.8 phosphate buffer, 2 hr): 75%
% Released ([2]; Example 20 tablet, pH 6.8 phosphate buffer, 3 hr): 98%
% Released ([2]; Example 20 tablet, pH 6.8 phosphate buffer, 4 hr): 105%
% Released ([2]; Example 20 tablet, pH 6.8 phosphate buffer, 5 hr): 107%
% Released ([2]; Example 20 tablet, pH 6.8 phosphate buffer, 6 hr): 107%
% Released ([2]; Example 20 tablet, pH 6.8 phosphate buffer, 8 hr): 107%
% Released ([2]; Example 20 tablet, pH 6.8 phosphate buffer, 10 hr): 107%
% Released ([2]; Example 20 tablet, pH 6.8 phosphate buffer, 12 hr): 107%
% Release ([2]; Example 27 controlled release tablet (batch 1258-171), 2 hrs): 51%
% Release ([2]; Example 27 controlled release tablet (batch 1258-171), 4 hrs): 70%
% Release ([2]; Example 27 controlled release tablet (batch 1258-171), 8 hrs): 96%
% Release ([2]; Example 27 controlled release tablet (batch 1258-171), 10 hrs): 100%
% Release ([2]; Example 27 controlled release tablet (batch 1258-171), 16 hrs): 100%
% Release ([2]; Example 28 controlled release tablet (batch 1258-175), 2 hrs): 0%
% Release ([2]; Example 28 controlled release tablet (batch 1258-175), 4 hrs): 7%
% Release ([2]; Example 28 controlled release tablet (batch 1258-175), 8 hrs): 61%
% Release ([2]; Example 28 controlled release tablet (batch 1258-175), 10 hrs): 74%
% Release ([2]; Example 28 controlled release tablet (batch 1258-175), 16 hrs): 84%
% Released ([2]; Example 29 controlled release tablet (batch no. 08070T), 900 ml 0.1N HCl, USP Apparatus 1, 75 rpm, 37° C., 0.5 hr): 18%
% Released ([2]; Example 29 controlled release tablet (batch no. 08070T), 900 ml 0.1N HCl, USP Apparatus 1, 75 rpm, 37° C., 1 hr): 28%
% Released ([2]; Example 29 controlled release tablet (batch no. 08070T), 900 ml 0.1N HCl, USP Apparatus 1, 75 rpm, 37° C., 2 hr): 42%
% Released ([2]; Example 29 controlled release tablet (batch no. 08070T), 900 ml 0.1N HCl, USP Apparatus 1, 75 rpm, 37° C., 3 hr): 53%
% Released ([2]; Example 29 controlled release tablet (batch no. 08070T), 900 ml 0.1N HCl, USP Apparatus 1, 75 rpm, 37° C., 4 hr): 62%
% Released ([2]; Example 29 controlled release tablet (batch no. 08070T), 900 ml 0.1N HCl, USP Apparatus 1, 75 rpm, 37° C., 5 hr): 70%
% Released ([2]; Example 29 controlled release tablet (batch no. 08070T), 900 ml 0.1N HCl, USP Apparatus 1, 75 rpm, 37° C., 6 hr): 76%
% Released ([2]; Example 29 controlled release tablet (batch no. 08070T), 900 ml 0.1N HCl, USP Apparatus 1, 75 rpm, 37° C., 8 hr): 86%
% Released ([2]; Example 29 controlled release tablet (batch no. 08070T), 900 ml 0.1N HCl, USP Apparatus 1, 75 rpm, 37° C., 10 hr): 93%
% Released ([2]; Example 29 controlled release tablet (batch no. 08070T), 900 ml 0.1N HCl, USP Apparatus 1, 75 rpm, 37° C., 12 hr): 97%
% Released ([2]; Example 29 controlled release tablet (batch no. 08070T), 900 ml pH 6.8 phosphate buffer, USP Apparatus 1, 75 rpm, 37° C., 0.5 hr): 19%
% Released ([2]; Example 29 controlled release tablet (batch no. 08070T), 900 ml pH 6.8 phosphate buffer, USP Apparatus 1, 75 rpm, 37° C., 1 hr): 29%
% Released ([2]; Example 29 controlled release tablet (batch no. 08070T), 900 ml pH 6.8 phosphate buffer, USP Apparatus 1, 75 rpm, 37° C., 2 hr): 44%
% Released ([2]; Example 29 controlled release tablet (batch no. 08070T), 900 ml pH 6.8 phosphate buffer, USP Apparatus 1, 75 rpm, 37° C., 3 hr): 55%
% Released ([2]; Example 29 controlled release tablet (batch no. 08070T), 900 ml pH 6.8 phosphate buffer, USP Apparatus 1, 75 rpm, 37° C., 4 hr): 65%
% Released ([2]; Example 29 controlled release tablet (batch no. 08070T), 900 ml pH 6.8 phosphate buffer, USP Apparatus 1, 75 rpm, 37° C., 5 hr): 72%
% Released ([2]; Example 29 controlled release tablet (batch no. 08070T), 900 ml pH 6.8 phosphate buffer, USP Apparatus 1, 75 rpm, 37° C., 6 hr): 79%
% Released ([2]; Example 29 controlled release tablet (batch no. 08070T), 900 ml pH 6.8 phosphate buffer, USP Apparatus 1, 75 rpm, 37° C., 8 hr): 90%
% Released ([2]; Example 29 controlled release tablet (batch no. 08070T), 900 ml pH 6.8 phosphate buffer, USP Apparatus 1, 75 rpm, 37° C., 10 hr): 98%
% Released ([2]; Example 29 controlled release tablet (batch no. 08070T), 900 ml pH 6.8 phosphate buffer, USP Apparatus 1, 75 rpm, 37° C., 12 hr): 102%
